Measurements reported in EP0550016A1, “Novel quinolone carboxylic acid derivatives and processes for preparing same” (KOREA RESEARCH INSTITUTE OF CHEMICAL TECHNOLOGY, priority 1991, dated 1993).
Read-outs that look alike come from different tables or passages of the source.

How the values were obtained:
Escherichia coli OTEM = assay: In vitro anti-bacterial activity test (MIC, two-fold dilution method) against the standard strains; assay type: cell-based; details: Table 1 strain 10: Escherichia coli OTEM
Escherichia coli DC 0 [1] = assay: as above; assay type: cell-based; details: DC0; Table 1 strain 7: Escherichia coli DC 0
[2] = test system: Streptococcus pyogenes 77 A; assay: as above; assay type: cell-based
[3] = test system: Staphylococcus aureus 701 E; assay: In vitro anti-bacterial activity test (MIC, two-fold dilution method), Table 2 strains; assay type: cell-based
[4] = test system: Staphylococcus aureus 703 E; assay: as above; assay type: cell-based
[5] = test system: Staphylococcus aureus 693 E; assay: as above; assay type: cell-based
[6] = test system: Pseudomonas aeruginosa 1592 E; assay: In vitro anti-bacterial activity test (MIC, two-fold dilution method) against the standard strains; assay type: cell-based; details: Table 1 strain 13: Pseudomonas aeruginosa 1592 E
Escherichia coli DC 2 = assay: as above; assay type: cell-based; details: DC2; Table 1 strain 9: Escherichia coli DC 2; read-out: MIC
[7] = test system: Staphylococcus aureus 706 E; assay: In vitro anti-bacterial activity test (MIC, two-fold dilution method), Table 2 strains; assay type: cell-based
[8] = test system: Staphylococcus aureus 256 E; assay: as above; assay type: cell-based; details: Table 2 strain 4: Staphylococcus aureus 256 E
[9] = test system: Pseudomonas aeruginosa 1771; assay: In vitro anti-bacterial activity test (MIC, two-fold dilution method) against the standard strains; assay type: cell-based; details: Table 1 strain 14: Pseudomonas aeruginosa 1771
[10] = test system: Staphylococcus aureus 711 E; assay: In vitro anti-bacterial activity test (MIC, two-fold dilution method), Table 2 strains; assay type: cell-based
[11] = test system: Staphylococcus aureus 697 E; assay: as above; assay type: cell-based; details: Table 2 strain 10: Staphylococcus aureus 697 E
[12] = test system: Staphylococcus aureus 695 E; assay: as above; assay type: cell-based
[13] = test system: Staphylococcus aureus 690 E; assay: as above; assay type: cell-based
[14] = test system: Pseudomonas aeruginosa 1771 M; assay: In vitro anti-bacterial activity test (MIC, two-fold dilution method) against the standard strains; assay type: cell-based; details: Table 1 strain 15: Pseudomonas aeruginosa 1771 M
Escherichia coli 1507 E = assay: as above; assay type: cell-based; details: Table 1 strain 11: Escherichia coli 1507 E
[15] = test system: Staphylococcus aureus 708 E; assay: In vitro anti-bacterial activity test (MIC, two-fold dilution method), Table 2 strains; assay type: cell-based; details: Table 2 strain 16: Staphylococcus aureus 708 E
[16] = test system: Pseudomonas aeruginosa 9027; assay: In vitro anti-bacterial activity test (MIC, two-fold dilution method) against the standard strains; assay type: cell-based; details: Table 1 strain 12: Pseudomonas aeruginosa 9027
[17] = test system: Staphylococcus aureus 88 E; assay: In vitro anti-bacterial activity test (MIC, two-fold dilution method), Table 2 strains; assay type: cell-based; details: Table 2 strain 1: Staphylococcus aureus 88 E
[18] = test system: Staphylococcus aureus 707 E; assay: as above; assay type: cell-based
P. mirabilis = assay: Preventive effect against the systemic infection; assay type: in vivo; details: Proteus mirabilis, 168 h, NMRI mice, survival on day 7, read-out: ED₅₀
Experimental: (§1) 10 fold of the pathogen which leads to 100% lethality were injected intraperitoneally to male and female NMRI mice weighing 18 to 20g. Immediately and after 4 hours, the dose of test compounds which was determined by two-fold serial dilution method was administered orally or subcutaneously; and on day 7, the effectiveness was evaluated in terms of ED₅₀ calculated from the number of survived mice by the probit analysis.

S. aureus 17740 = assay: Preventive effect against the systemic infection; assay type: in vivo; details: Staphylococcus aureus, 168 h, NMRI mice, survival on day 7, read-out: ED₅₀
Experimental: as §1

[19] = test system: Streptococcus pyogenes 308 A; assay: In vitro anti-bacterial activity test (MIC, two-fold dilution method) against the standard strains; assay type: cell-based; details: Table 1 strain 1: Streptococcus pyogenes 308 A
[20] = test system: Staphylococcus aureus 694 E; assay: In vitro anti-bacterial activity test (MIC, two-fold dilution method), Table 2 strains; assay type: cell-based
[21] = test system: Staphylococcus aureus 121 E; assay: as above; assay type: cell-based
[22] = test system: Staphylococcus aureus 705 E; assay: as above; assay type: cell-based
[23] = test system: Staphylococcus aureus 285; assay: In vitro anti-bacterial activity test (MIC, two-fold dilution method) against the standard strains; assay type: cell-based
[24] = test system: Staphylococcus aureus 692 E; assay: In vitro anti-bacterial activity test (MIC, two-fold dilution method), Table 2 strains; assay type: cell-based; details: Table 2 strain 6: Staphylococcus aureus 692 E
Escherichia coli DC 0 [25] = assay: In vitro anti-bacterial activity test (MIC, two-fold dilution method) against the standard strains; assay type: cell-based; details: DC0; Table 1 strain 8: Escherichia coli DC 0
[26] = test system: Staphylococcus aureus SG 511; assay: as above; assay type: cell-based; details: SG511; Table 1 strain 4: Staphylococcus aureus SG 511
[27] = test system: Klebsiella aerogenes 1082 E; assay: as above; assay type: cell-based; details: Table 1 strain 17: Klebsiella aerogenes 1082 E
[28] = test system: Staphylococcus aureus 725 E; assay: In vitro anti-bacterial activity test (MIC, two-fold dilution method), Table 2 strains; assay type: cell-based
[29] = test system: Staphylococcus aureus 208 E; assay: as above; assay type: cell-based
[30] = test system: Streptococcus faecium MD 8b; assay: In vitro anti-bacterial activity test (MIC, two-fold dilution method) against the standard strains; assay type: cell-based; details: Enterococcus faecium, MD8B
[31] = test system: Staphylococcus aureus 503; assay: as above; assay type: cell-based
[32] = test system: Staphylococcus aureus 714 E; assay: In vitro anti-bacterial activity test (MIC, two-fold dilution method), Table 2 strains; assay type: cell-based
[33] = test system: Enterobacter cloacae 1321 E; assay: In vitro anti-bacterial activity test (MIC, two-fold dilution method) against the standard strains; assay type: cell-based; details: Table 1 strain 20: Enterobacter cloacae 1321 E
[34] = test system: Klebsiella aerogenes 1522 E; assay: as above; assay type: cell-based; details: Table 1 strain 18: Klebsiella aerogenes 1522 E
[35] = test system: Enterobacter cloacae P 99; assay: as above; assay type: cell-based; details: P99; Table 1 strain 19: Enterobacter cloacae P 99
Salmonella typhimurium = assay: as above; assay type: cell-based; details: Salmonella enterica; Table 1 strain 16: Salmonella typhimurium
[36] = Table 1 strain 2: Streptococcus pyogenes 77 A, read-out: MIC
[37] = Table 2 strain 11: Staphylococcus aureus 701 E, read-out: MIC
[38] = Table 2 strain 12: Staphylococcus aureus 703 E, read-out: MIC
[39] = Table 2 strain 7: Staphylococcus aureus 693 E, read-out: MIC
[40] = Table 2 strain 14: Staphylococcus aureus 706 E, read-out: MIC
[41] = Table 2 strain 17: Staphylococcus aureus 711 E, read-out: MIC
[42] = Table 2 strain 9: Staphylococcus aureus 695 E, read-out: MIC
[43] = Table 2 strain 5: Staphylococcus aureus 690 E, read-out: MIC
[44] = Table 2 strain 15: Staphylococcus aureus 707 E, read-out: MIC
[45] = Table 2 strain 8: Staphylococcus aureus 694 E, read-out: MIC
[46] = Table 2 strain 2: Staphylococcus aureus 121 E, read-out: MIC
[47] = Table 2 strain 13: Staphylococcus aureus 705 E, read-out: MIC
[48] = Table 1 strain 5: Staphylococcus aureus 285, read-out: MIC
[49] = Table 2 strain 19: Staphylococcus aureus 725 E, read-out: MIC
[50] = Table 2 strain 3: Staphylococcus aureus 208 E, read-out: MIC
[51] = Table 1 strain 3: Streptococcus faecium MD 8b, read-out: MIC
[52] = Table 1 strain 6: Staphylococcus aureus 503, read-out: MIC
[53] = Table 2 strain 18: Staphylococcus aureus 714 E, read-out: MIC

O=C(O)c1cn(C2CC2)c2cc(N3CCNCC3)c(F)cc2c1=O [Ciprofloxacin, ciprofloxacin, reference compound]
0.007 µg/mL: MIC (Escherichia coli OTEM) | MIC (Escherichia coli 1507 E) | MIC [27]
0.098 µg/mL: MIC [14]
0.16 mg/kg: ED50 (P. mirabilis; sc, Subcutaneous Injection)
0.82 mg/kg: ED50 (P. mirabilis; Oral Administration)
0.391 µg/mL: MIC [6] | MIC [9] | MIC [11] | MIC [16] | MIC [24] | MIC (Escherichia coli DC 0 [25])
0.781 µg/mL: MIC ([2]; Streptococcus pyogenes, 77A) | MIC ([3]; Staphylococcus aureus, 701E) | MIC ([4]; Staphylococcus aureus, 703E) | MIC ([5]; Staphylococcus aureus, 693E) | MIC ([7]; Staphylococcus aureus, 706E) | MIC ([10]; Staphylococcus aureus, 711E) | MIC ([12]; Staphylococcus aureus, 695E) | MIC ([13]; Staphylococcus aureus, 690E) | MIC ([18]; Staphylococcus aureus, 707E) | MIC ([20]; Staphylococcus aureus, 694E) | MIC ([21]; Staphylococcus aureus, 121E) | MIC ([22]; Staphylococcus aureus, 705E) | MIC ([23]; Staphylococcus aureus, 285) | MIC ([28]; Staphylococcus aureus, 725E) | MIC ([29]; Staphylococcus aureus, 208E) | MIC [30] | MIC ([31]; Staphylococcus aureus, 503) | MIC ([32]; Staphylococcus aureus, 714E)
3.12 µg/mL: MIC [19]
1.56 µg/mL: MIC [8] | MIC [17]
0.002 µg/mL: MIC (Escherichia coli DC 0 [1])
> 200 mg/kg: ED50 (S. aureus 17740; Oral Administration)
0.195 µg/mL: MIC (Escherichia coli DC 2) | MIC [15] | MIC [26]

CNC1CC12CCN(c1c(F)cc3c(=O)c(C(=O)O)cn(C4CC4)c3c1F)C2 (stereo not drawn) [Example 8, 7-(1-methylamino-5-azaspiro[2,4]heptane-5-yl)-1-cyclopropyl-6,8-difluoro-1,4-dihydro-4-oxo-quinoline-3-carboxylic acid]
0.049 µg/mL: MIC (Escherichia coli OTEM) | MIC [5, 39] | MIC [10, 41] | MIC [11] | MIC [12, 42] | MIC [13, 43] | MIC (Escherichia coli 1507 E) | MIC [15] | MIC [35] | MIC [23, 48] | MIC [24] | MIC [26] | MIC [31, 52] | MIC (Salmonella typhimurium) | MIC [32, 53]
0.025 µg/mL: MIC [33]
0.195 µg/mL: MIC [2, 36] | MIC [3, 37] | MIC [4, 38] | MIC [8] | MIC [18, 44] | MIC [22, 47] | MIC [30, 51]
0.098 µg/mL: MIC (Escherichia coli DC 2) | MIC [7, 40] | MIC [17] | MIC [34] | MIC [21, 46] | MIC [28, 49] | MIC [29, 50]
0.004 µg/mL: MIC [27]
0.013 µg/mL: MIC (Escherichia coli DC 0 [1])
0.391 µg/mL: MIC [14] | MIC [19] | MIC [20, 45] | MIC (Escherichia coli DC 0 [25])
1.56 µg/mL: MIC [6] | MIC [9] | MIC [16]

CNC1CC12CCN(c1c(F)cc3c(=O)c(C(=O)O)cn(C4CC4)c3c1Cl)C2 (stereo not drawn) [Example 9, 7-(1-methylamino-5-azaspiro[2,4]heptane-5-yl)-8-chloro-1-cyclopropyl-6-fluoro-1,4-dihydro-4-oxo-quinoline-3-carboxylic acid]
0.098 µg/mL: MIC [3, 37] | MIC [4, 38] | MIC (Escherichia coli DC 2) | MIC [7, 40] | MIC [8] | MIC (Escherichia coli 1507 E) | MIC [18, 44] | MIC [20, 45] | MIC [35] | MIC [21, 46] | MIC [22, 47] | MIC [28, 49] | MIC [29, 50] | MIC [32, 53]
0.025 µg/mL: MIC (Escherichia coli DC 0 [1]) | MIC [33] | MIC [10, 41] | MIC [15] | MIC [27]
0.049 µg/mL: MIC (Escherichia coli OTEM) | MIC [5, 39] | MIC [11] | MIC [12, 42] | MIC [13, 43] | MIC [23, 48] | MIC [24] | MIC [26] | MIC [31, 52] | MIC (Salmonella typhimurium)
0.195 µg/mL: MIC [2, 36] | MIC [17] | MIC [34] | MIC [30, 51]
3.12 µg/mL: MIC [16]
0.391 µg/mL: MIC [19] | MIC (Escherichia coli DC 0 [25])
1.56 µg/mL: MIC [6] | MIC [9]
0.781 µg/mL: MIC [14]

CC1COc2c(N3CCN(C)CC3)c(F)cc3c(=O)c(C(=O)O)cn1c23 (stereo not drawn) [Ofloxacin, ofloxacin, reference compound]
0.025 µg/mL: MIC [35] | MIC (Salmonella typhimurium)
> 200 mg/kg: ED50 (S. aureus 17740; Oral Administration)
< 0.002 µg/mL: MIC [27]
0.013 µg/mL: MIC (Escherichia coli DC 0 [1]) | MIC [33]
0.195 µg/mL: MIC (Escherichia coli DC 2) | MIC [15] | MIC [26]
0.781 µg/mL: MIC [3, 37] | MIC [4, 38] | MIC [7, 40] | MIC [8] | MIC [17] | MIC [18, 44] | MIC [20, 45] | MIC [21, 46] | MIC [22, 47] | MIC [29, 50] | MIC [30, 51]
1.56 µg/mL: MIC [2, 36] | MIC [6] | MIC [9] | MIC [16]
0.049 µg/mL: MIC (Escherichia coli OTEM) | MIC (Escherichia coli 1507 E) | MIC [34]
0.391 µg/mL: MIC [5, 39] | MIC [10, 41] | MIC [11] | MIC [12, 42] | MIC [13, 43] | MIC [14] | MIC [23, 48] | MIC [24] | MIC (Escherichia coli DC 0 [25]) | MIC [28, 49] | MIC [31, 52] | MIC [32, 53]
2.21 mg/kg: ED50 (P. mirabilis; Oral Administration)
3.12 µg/mL: MIC [19]
0.33 mg/kg: ED50 (P. mirabilis; sc, Subcutaneous Injection)
200 mg/kg: ED50 (S. aureus 17740; sc, Subcutaneous Injection)
